These results are taken from PMC7758422, “Design, Synthesis, and Antitumor Activities Study of Stapled A4K14-Citropin 1.1 Peptides” (Frontiers in Chemistry, 2020).

Like-named read-outs stand apart in the source and are kept apart here. Bridge positions count the residues as written; N and C are the ends. Square brackets hold non-standard residues; d marks the D form. Peptide text beside a SMILES is read from it. S5 = C=CCCC[C@](C)(N)C(=O)O Where only a bound is given, the exact number is not on record here.

The test system of one data set is α-chymotrypsin. The experiment in a line: Protease stability experiment (α-chymotrypsin-mediated degradation). Type of data set: in vitro ADME. Conditions: for remaining at 12 h, 25 µM: α-chymotrypsin 0.5 ng/μl in PBS pH 7.4 with 2 mM CaCl2, 37°C, HPLC, read-out: peptide remaining intact after 12 h of protease exposure; for half-life at 25 µM: α-chymotrypsin 0.5 ng/μl in PBS pH 7.4 with 2 mM CaCl2, 50 μl peptide 1 mM in DMSO + 1,950 μl enzyme, 37°C, 0, 1, 2, 4, 8, 12 h, residual peptide by HPLC, read-out: t1/2 (h), hydrolysis enzyme degradation half-life (converted). How it is done:
Protease Stability Experiment
Fifty microliters peptides in dimethyl sulfoxide (DMSO) (1 mM) and 1,950 μl α-chymotrypsin in phosphate-buffered saline (PBS) (0.5 ng/μl, pH 7.4, containing 2 mM CaCl2) were mixed and incubated at 37°C. After 0, 1, 2, 4, 8, and 12 h, the percent residual peptide was monitored by HPLC.

Data set [1] relates to human lung tumor cell line A549. Type of data set: cell-based. From the text: (§1) Cell Culture and Cell Viability Assay
(§2) The human prostate cancer cell line C4-2B was kindly provided and authenticated by Dr. Leland Chung (Cedars-Sinai Medical Center, Los Angeles, CA, USA). The human lung tumor cell line A549, the human breast tumor cell line MCF-7, and glioma cell line U87 were obtained from Shanghai Cellular Institute of Chinese Academy of Sciences (Shanghai, China). All cell lines were maintained in Dulbecco's modified Eagle's medium (DMEM) involving 10% fetal bovine serum (FBS) and 1% penicillin–streptomycin (PS) (complete DMEM) and was cultured at 37°C with humidified atmosphere of 5% CO2. Cell viability was examined using the cell counting kit (CCK-8) in accordance with manufacturer's protocol. Cells were seeded in 96-well culture plates at a density of 3 ×10^3 cells/well at 37°C for 24 h. Next day, cells were treated without or with various concentrations (0.39, 0.78, 1.56, 3.125, 6.25, 12.5, 25, and 50 μM) of peptides for 96 h after which 10 μl of CCK-8 reagent was added to each well and incubated for further 2 h at 37°C. The optical density (OD) was then measured at a wavelength of 450 nm on a Cell Imaging Multi-Mode Reader (BioTek, Vermont, USA), and the average OD values for each sample were analyzed using Image-J software (NIH, Bethesda, MD, USA). The half maximal inhibitory concentration (IC50) was calculated by GraphPad Prism v7.0 software (San Diego, CA, USA).

For a further data set, the system named is glioma cell line U87. It is filed as cell-based.
Description: as §1, §2

Data set [2] concerns human breast tumor cell line MCF-7. It is filed as cell-based.
Description: as §1, §2

Data set [3] relates to human prostate cancer cell line C4-2B. Type of data set: cell-based.
Description: as §1, §2

Setting [4] is: CCK-8, 96 h treatment, 0.39-50 μM, OD 450 nm, read-out: IC50 (μM) A549.
[5] abbreviates: CCK-8, 96 h treatment, 0.39-50 μM, OD 450 nm, read-out: IC50 (μM) U87.
Where [6] appears, read: CCK-8, 96 h treatment, 0.39-50 μM, OD 450 nm, read-out: IC50 (μM) MCF-7.
[7] abbreviates: CCK-8, 96 h treatment, 0.39-50 μM, OD 450 nm, read-out: IC50 (μM) C4-2B.

By share remaining is commonly meant what is left of the initial amount, in per cent. The IC50 is the concentration that gives 50% inhibition. `CC[C@H](C)[C@H](NC(=O)[C@@H](NC(=O)[C@H](CO)NC(=O)[C@H](C)NC(=O)[C@@H](NC(=O)[C@H](CCCCN)NC(=O)[C@H](CCCCN)NC(=O)[C@]1(C)CCCC=CCCC[C@](C)(NC(=O)CNC(C)=O)C(=O)N[C@@H](Cc2ccccc2)C(=O)N[C@@H](C)C(=O)N[C@@H](C(C)C)C(=O)N1)C(C)C)C(C)C)C(=O)N[C@@H](CCCCN)C(=O)NCC(=O)N[C@@H](CC(C)C)C(N)=O` [A4K14-citropin1.1-1] (Ac-G[S5]FAV[S5]KKVASVIKGL-NH2; staple 2-6): the amount remaining at 12 h, 25 µM with α-chymotrypsin is > 85%. Moreover, the half-life at 25 µM in the data set on α-chymotrypsin is > 10 h. Also, the IC50 came out at 12.5 µM in data set [1] (setting [4]), 11.9 µM with glioma cell line U87 (setting [5]), 11.3 µM in data set [2] (setting [6]) and 8.94 µM in data set [3] (setting [7]).

On to `CC[C@H](C)[C@H](NC(=O)[C@@H](NC(=O)[C@H](CO)NC(=O)[C@H](C)NC(=O)[C@]1(C)CCCC=CCCC[C@](C)(NC(=O)[C@H](C)NC(=O)[C@H](Cc2ccccc2)NC(=O)[C@H](CC(C)C)NC(=O)CNC(C)=O)C(=O)N[C@@H]([C@@H](C)CC)C(=O)N[C@@H](CCCCN)C(=O)N[C@@H](CCCCN)C(=O)N1)C(C)C)C(=O)N[C@@H](CCCCN)C(=O)NCC(=O)N[C@@H](CC(C)C)C(N)=O` [A4K14-citropin1.1-2] (Ac-GLFA[S5]IKK[S5]ASVIKGL-NH2; staple 5-9), for which the half-life at 25 µM with α-chymotrypsin was 1.72 h. The IC50 in data set [1] (96 h) came out at 12.6 µM; with glioma cell line U87 (96 h) it was 14.8 µM; in data set [2] (96 h), 12.7 µM; in data set [3] (96 h), 10.1 µM.

In the case of `CC[C@H](C)[C@H](NC(=O)[C@@H](NC(=O)[C@H](CO)NC(=O)[C@]1(C)CCCC=CCCC[C@](C)(NC(=O)[C@@H](NC(=O)[C@H](C)NC(=O)[C@H](Cc2ccccc2)NC(=O)[C@H](CC(C)C)NC(=O)CNC(C)=O)C(C)C)C(=O)N[C@@H](CCCCN)C(=O)N[C@@H](CCCCN)C(=O)N[C@@H](C(C)C)C(=O)N1)C(C)C)C(=O)N[C@@H](CCCCN)C(=O)NCC(=O)N[C@@H](CC(C)C)C(N)=O` [A4K14-citropin1.1-3] (Ac-GLFAV[S5]KKV[S5]SVIKGL-NH2; staple 6-10), the half-life at 25 µM with α-chymotrypsin was 0.61 h. Moreover, the IC50 in data set [1] (setting [4]) stood at 12.1 µM; in the data set with glioma cell line U87 (setting [5]) it was 11.9 µM; in data set [2] (setting [6]), 11.9 µM; in data set [3] (setting [7]) it was 17.9 µM.

With `CC[C@H](C)[C@H](NC(=O)[C@@H](NC(=O)[C@H](C)NC(=O)[C@H](Cc1ccccc1)NC(=O)[C@H](CC(C)C)NC(=O)CNC(C)=O)C(C)C)C(=O)N[C@@H](CCCCN)C(=O)N[C@@H](CCCCN)C(=O)N[C@@]1(C)CCCC=CCCC[C@@](C)(C(=O)N[C@@H](CCCCN)C(=O)NCC(=O)N[C@@H](CC(C)C)C(N)=O)NC(=O)[C@H](C(C)C)NC(=O)[C@H](CO)NC(=O)[C@H](C)NC1=O` [A4K14-citropin1.1-4] (Ac-GLFAVIKK[S5]ASV[S5]KGL-NH2; staple 9-13), the amount remaining at 12 h, 25 µM in the data set with α-chymotrypsin is > 85%. Further, the half-life at 25 µM in the data set with α-chymotrypsin was > 10 h. In addition, the IC50 in data set [1] (setting [4]) was 10.5 µM; with glioma cell line U87 (setting [5]), 7.28 µM; in data set [2] (setting [6]), 10.5 µM; in data set [3] (setting [7]), 8.9 µM.

For `CC[C@H](C)[C@H](NC(=O)[C@@H](NC(=O)[C@H](C)NC(=O)[C@H](Cc1ccccc1)NC(=O)[C@H](CC(C)C)NC(=O)CNC(C)=O)C(C)C)C(=O)N[C@@H](CCCCN)C(=O)N[C@@H](CCCCN)C(=O)N[C@H](C(=O)N[C@@H](C)C(=O)N[C@@]1(C)CCCC=CCCC[C@@](C)(C(=O)N[C@@H](CC(C)C)C(N)=O)NC(=O)[C@H](CCCCN)NC(=O)[C@H]([C@@H](C)CC)NC(=O)[C@H](C(C)C)NC1=O)C(C)C` [A4K14-citropin1.1-5] (Ac-GLFAVIKKVA[S5]VIK[S5]L-NH2; staple 11-15), the half-life at 25 µM in the data set with α-chymotrypsin was 1.83 h. Also, the concentration for half-maximal inhibition (IC50) worked out at 9.9 µM in data set [1] (setting [4]), 8.23 µM in the data set on glioma cell line U87 (setting [5]), 12.4 µM in data set [2] (setting [6]) and 11.9 µM in data set [3] (setting [7]).
